What was measured:
Assay type in all cases: biochemical
Human Tyk2 kinase domain = molecular target: T1, Human Tyk2 kinase domain (Homo sapiens, UniProt P29597); test: Tyk2 Inhibition Assay (Omnia kinase fluorescence peptide substrate assay); details: averaged IC50 ranges; assay of Example A; 10 μM (Km app) or 1 mM ATP, 2 nM Tyk2
T1 construct: comprising amino acids 886 to 1187 with 10 additional histidine residues; 10xHis (histidine tag) (C, cleaved yes); made in house
T1 sequence (P29597 886-1187): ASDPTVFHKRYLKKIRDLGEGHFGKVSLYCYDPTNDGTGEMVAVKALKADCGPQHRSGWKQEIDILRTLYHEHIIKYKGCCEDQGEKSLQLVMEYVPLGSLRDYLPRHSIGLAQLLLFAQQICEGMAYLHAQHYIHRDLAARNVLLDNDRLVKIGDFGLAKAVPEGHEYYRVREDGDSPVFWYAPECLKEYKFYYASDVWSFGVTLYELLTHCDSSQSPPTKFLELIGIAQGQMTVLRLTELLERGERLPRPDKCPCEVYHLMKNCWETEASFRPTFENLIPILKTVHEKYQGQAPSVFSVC
Method in brief: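 2 nM His-tag-cleaved kinase domain (aa 886–1187) with 8 μM Omnia Y12 peptide, 10 μM (Km app) or 1 mM ATP, pH 7.4 HEPES/10 mM MgCl2, 2% DMSO. Fluorescence (ex 360/em 485 nm) every 50 s for 45 min; IC50 from 4-parameter fit of POC, top dose 10 μM.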

JAK1 = molecular target: T2, JAK1 (Homo sapiens, UniProt P23458); test: JAK1 Inhibition Assay (Omnia kinase fluorescence peptide substrate assay); details: averaged IC50 ranges; assay of Example B; 40 μM (Km app) or 1 mM ATP, 15 nM JAK1
T2 construct: purchased Invitrogen Corporation, Carlsbad, Calif; PV4775
T2 sequence (P23458 whole entry): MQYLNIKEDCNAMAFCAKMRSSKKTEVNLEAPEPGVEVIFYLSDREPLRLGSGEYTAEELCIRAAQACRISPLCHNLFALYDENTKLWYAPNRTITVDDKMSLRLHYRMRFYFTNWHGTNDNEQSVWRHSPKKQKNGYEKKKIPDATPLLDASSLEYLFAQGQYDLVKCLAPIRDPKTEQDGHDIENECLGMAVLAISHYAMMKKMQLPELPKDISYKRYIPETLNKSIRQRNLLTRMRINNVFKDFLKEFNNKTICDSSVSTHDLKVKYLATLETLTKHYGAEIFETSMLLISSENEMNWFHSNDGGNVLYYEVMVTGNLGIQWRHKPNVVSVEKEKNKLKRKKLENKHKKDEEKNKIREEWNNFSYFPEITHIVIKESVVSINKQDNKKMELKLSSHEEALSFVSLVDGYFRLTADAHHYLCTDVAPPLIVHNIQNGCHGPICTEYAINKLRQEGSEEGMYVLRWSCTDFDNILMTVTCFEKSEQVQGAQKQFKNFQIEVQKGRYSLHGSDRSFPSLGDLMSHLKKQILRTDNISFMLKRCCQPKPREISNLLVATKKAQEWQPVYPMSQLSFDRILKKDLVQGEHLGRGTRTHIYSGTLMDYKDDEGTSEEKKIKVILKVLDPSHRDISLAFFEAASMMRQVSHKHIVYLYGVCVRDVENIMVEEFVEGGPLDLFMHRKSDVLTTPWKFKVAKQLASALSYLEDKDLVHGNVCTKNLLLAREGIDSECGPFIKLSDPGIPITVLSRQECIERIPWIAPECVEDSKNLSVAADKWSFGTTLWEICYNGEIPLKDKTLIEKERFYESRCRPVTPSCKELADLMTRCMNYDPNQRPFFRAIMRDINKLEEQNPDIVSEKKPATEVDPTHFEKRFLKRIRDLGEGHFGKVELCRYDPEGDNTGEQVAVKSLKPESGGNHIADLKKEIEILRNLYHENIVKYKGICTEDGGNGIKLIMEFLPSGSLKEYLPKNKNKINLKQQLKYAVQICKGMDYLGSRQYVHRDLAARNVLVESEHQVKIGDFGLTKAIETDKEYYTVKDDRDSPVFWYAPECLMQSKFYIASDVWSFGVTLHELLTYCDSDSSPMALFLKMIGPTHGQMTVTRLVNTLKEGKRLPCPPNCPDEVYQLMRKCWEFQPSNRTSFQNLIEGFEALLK

JAK2 = molecular target: T3, JAK2 (Homo sapiens, UniProt O60674); test: JAK2 Inhibition Assay (Omnia kinase fluorescence peptide substrate assay); details: averaged IC50 ranges; assay of Example C; 25 μM (Km app) or 1 mM ATP, 5 nM JAK2
T3 construct: purchased Invitrogen Corporation, Carlsbad, Calif; PV4288
T3 sequence (O60674 whole entry): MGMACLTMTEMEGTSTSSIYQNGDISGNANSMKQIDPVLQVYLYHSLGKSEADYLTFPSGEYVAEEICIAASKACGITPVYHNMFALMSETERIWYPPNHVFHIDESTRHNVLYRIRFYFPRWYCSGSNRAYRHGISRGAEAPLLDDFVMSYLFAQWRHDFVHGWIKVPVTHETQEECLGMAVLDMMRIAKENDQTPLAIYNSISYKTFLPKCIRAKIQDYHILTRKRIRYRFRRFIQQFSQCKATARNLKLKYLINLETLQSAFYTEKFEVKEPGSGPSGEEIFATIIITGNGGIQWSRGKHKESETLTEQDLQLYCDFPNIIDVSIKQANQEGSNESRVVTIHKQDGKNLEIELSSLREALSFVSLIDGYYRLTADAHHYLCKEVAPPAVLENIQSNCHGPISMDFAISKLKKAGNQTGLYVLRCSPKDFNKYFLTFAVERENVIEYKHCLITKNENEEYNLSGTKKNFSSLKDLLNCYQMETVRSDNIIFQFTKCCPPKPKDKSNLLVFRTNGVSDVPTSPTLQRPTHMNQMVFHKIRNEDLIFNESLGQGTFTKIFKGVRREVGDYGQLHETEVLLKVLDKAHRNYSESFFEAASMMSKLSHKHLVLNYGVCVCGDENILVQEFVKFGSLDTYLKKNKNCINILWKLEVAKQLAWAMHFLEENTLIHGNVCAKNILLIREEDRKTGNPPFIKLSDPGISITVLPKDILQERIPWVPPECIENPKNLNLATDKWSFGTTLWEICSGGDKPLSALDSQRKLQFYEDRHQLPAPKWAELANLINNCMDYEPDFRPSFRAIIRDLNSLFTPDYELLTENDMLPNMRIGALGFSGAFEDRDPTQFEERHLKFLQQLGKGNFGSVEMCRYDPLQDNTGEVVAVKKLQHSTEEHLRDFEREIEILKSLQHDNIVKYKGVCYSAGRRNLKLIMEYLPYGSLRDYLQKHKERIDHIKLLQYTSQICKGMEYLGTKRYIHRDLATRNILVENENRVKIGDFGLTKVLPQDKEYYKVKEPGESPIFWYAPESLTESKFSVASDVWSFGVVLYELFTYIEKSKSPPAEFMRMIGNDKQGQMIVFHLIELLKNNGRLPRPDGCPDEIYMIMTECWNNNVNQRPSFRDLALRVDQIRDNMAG
Method in brief: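 A 10-point, 3-fold compound series (top 10 μM, 2% DMSO) was tested against 5 nM JAK2 with 10 μM Omnia Y7 substrate and either 1 mM or 25 μM (Km app) ATP. Buffer: pH 7.4 HEPES, MgCl2, Triton X-100, DTT. Sox fluorescence was monitored kinetically for 45 min; IC50 is the concentration giving 50 POC on a 4-parameter fit.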

JAK3 = molecular target: T4, JAK3 (Homo sapiens, UniProt P52333); test: JAK3 Inhibition Assay (Omnia kinase fluorescence peptide substrate assay); details: averaged IC50 ranges; assay of Example D; 10 μM (Km app) or 1 mM ATP, 2.5 nM JAK3
T4 construct: purchased Invitrogen Corporation, Carlsbad, Calif; PV4080
T4 sequence (P52333 1-1124): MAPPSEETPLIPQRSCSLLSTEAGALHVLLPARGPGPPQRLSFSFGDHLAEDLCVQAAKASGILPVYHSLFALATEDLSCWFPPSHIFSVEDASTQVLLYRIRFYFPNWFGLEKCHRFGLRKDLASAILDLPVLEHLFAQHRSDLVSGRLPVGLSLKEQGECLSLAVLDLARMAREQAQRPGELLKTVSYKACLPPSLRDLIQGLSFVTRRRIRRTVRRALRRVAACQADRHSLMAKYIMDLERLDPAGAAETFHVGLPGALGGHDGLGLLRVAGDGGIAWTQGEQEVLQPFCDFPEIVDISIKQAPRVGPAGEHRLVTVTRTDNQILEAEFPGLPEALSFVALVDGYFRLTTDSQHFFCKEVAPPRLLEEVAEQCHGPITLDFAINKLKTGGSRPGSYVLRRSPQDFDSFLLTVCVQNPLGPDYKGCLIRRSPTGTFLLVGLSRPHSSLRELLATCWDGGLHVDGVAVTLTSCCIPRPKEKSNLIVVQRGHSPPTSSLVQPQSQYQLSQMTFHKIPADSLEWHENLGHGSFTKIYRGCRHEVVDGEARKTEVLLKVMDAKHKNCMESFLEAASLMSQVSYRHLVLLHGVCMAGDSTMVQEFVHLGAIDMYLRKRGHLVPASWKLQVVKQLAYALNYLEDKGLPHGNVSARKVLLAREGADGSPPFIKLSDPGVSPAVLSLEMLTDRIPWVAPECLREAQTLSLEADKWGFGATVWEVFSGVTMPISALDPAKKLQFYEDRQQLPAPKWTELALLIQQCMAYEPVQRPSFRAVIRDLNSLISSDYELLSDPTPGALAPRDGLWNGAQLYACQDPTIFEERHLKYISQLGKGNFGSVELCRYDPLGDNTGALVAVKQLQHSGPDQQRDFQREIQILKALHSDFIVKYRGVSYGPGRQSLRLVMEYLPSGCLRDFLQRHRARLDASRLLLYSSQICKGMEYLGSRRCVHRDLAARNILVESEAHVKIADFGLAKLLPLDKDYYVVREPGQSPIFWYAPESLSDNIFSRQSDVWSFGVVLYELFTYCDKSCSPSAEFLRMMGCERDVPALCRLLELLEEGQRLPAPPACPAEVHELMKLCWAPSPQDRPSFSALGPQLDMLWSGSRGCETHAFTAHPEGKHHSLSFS
Method in brief: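 Kinase at 2.5 nM with 10 µM Omnia Y7 peptide and 10 µM (Km app) or 1 mM ATP in 25 mM HEPES pH 7.4, 10 mM MgCl2, 1 mM DTT, 0.01% Triton X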

IC50 (Human Tyk2 kinase domain)	IC50 (JAK1)	IC50 (JAK2)	IC50 (JAK3)	SMILES
< 10 nM	100 to 1000 nM	10 to 100 nM	> 1000 nM	CCS(=O)(=O)N1CC(CC#N)(n2cc(-c3nc(-c4cnn(C)c4)cc4nccn34)cn2)C1 [Example 97, 2-(1-(ethylsulfonyl)-3-(4-(7-(1-methyl-1H-pyrazol-4-yl)imidazo[1,2-c]pyrimidin-5-yl)-1H-pyrazol-1-yl)azetidin-3-yl)acetonitrile]
< 10 nM	100 to 1000 nM	10 to 100 nM	> 1000 nM	Cn1cc(-c2cc3nccn3c(-c3cnn(C4(CC#N)CN(S(=O)(=O)CCC(F)(F)F)C4)c3)n2)cn1 [Example 98, 2-(3-(4-(7-(1-methyl-1H pyrazol-4-yl)imidazo[1,2-c]pyrimidin-5-yl)-1H-pyrazol-1-yl)-1-(3,3,3-trifluoropropylsulfonyl)azetidin-3-yl)acetonitrile]
< 10 nM	100 to 1000 nM	10 to 100 nM	> 1000 nM	CC(C)n1cc(-c2cc3nccn3c(-c3cnn(C4(CC#N)CN(CC(F)(F)F)C4)c3)n2)cn1 [Example 100, 2-(3-(4-(7-(1-Isopropyl-1-H-pyrazol-4-yl)imidazo[1,2-c]pyrimidin-5-yl)-1H-pyrazol-1-yl)-1-(2,2,2-trifluoroethyl)azetidin-3-yl)acetonitrile]
< 10 nM	< 10 nM	< 10 nM	100 to 1000 nM	CC(C)n1cc(-c2cc3nccn3c(-c3cnn(C4(CC#N)CN(S(=O)(=O)C(F)(F)F)C4)c3)n2)cn1 [Example 101, 2-(3-(4-(7-(1-Isopropyl-1H-pyrazol-4-yl)imidazo[1,2-c]pyrimidin-5-yl)-1H-pyrazol-1-yl)-1-(trifluoromethylsulfonyl)azetidine-3-yl)acetonitrile]

Continued, compound first:

SMILES	IC50 (Human Tyk2 kinase domain)	IC50 (JAK1)	IC50 (JAK2)	IC50 (JAK3)
Cn1cc(-c2cc3nccn3c(-c3cnn(C4(CC#N)CN(S(=O)(=O)c5ccccc5)C4)c3)n2)cn1 [Example 99, 2-(3-(4-(7-(1-methyl-1H-pyrazol-4-yl)imidazo[1,2-c]pyrimidin-5-yl)-1H-pyrazol-1-yl)-1-(phenylsulfonyl)azetidin-3-yl)acetonitrile]	10 to 100 nM	100 to 1000 nM	100 to 1000 nM	> 1000 nM
Cc1ncc(-c2cc3nccn3c(-c3cnn(C4(CC#N)CN(CC(F)(F)F)C4)c3)n2)s1 [Example 102, 2-(3-(4-(7-(2-Methylthiazol-5-yl)imidazo[1,2-c]pyrimidin-5-yl)-1H-pyrazol-1-yl)-1-(2,2,2-trifluoroethyl)azetidin-3-yl)acetonitrile]	10 to 100 nM	100 to 1000 nM	100 to 1000 nM	> 1000 nM
N#CCC1(n2cc(-c3nc(-c4cnn(C5CCC5)c4)cc4nccn34)cn2)CN(CC(F)(F)F)C1 [Example 103, 2-(3-(4-(7-(1-Cyclobutyl-1H-pyrazol-4-yl)imidazo[1,2-c]pyrimidin-5-yl)-1H-pyrazol-1-yl)-1-(2,2,2-trifluoroethyl)azetidin-3-yl)acetonitrile]	< 10 nM	10 to 100 nM	10 to 100 nM	100 to 1000 nM
CCn1cc(-c2cc3nccn3c(-c3cnn(C4(CC#N)CN(CC(F)(F)F)C4)c3)n2)cn1 [Example 104, 2-(3-(4-(7-(1-Ethyl-1H-pyrazol-4-yl)imidazo[1,2-c]pyrimidin-5-yl)-1H-pyrazol-1-yl)-1-(2,2,2-trifluoroethyl)azetidin-3-yl)acetonitrile]	< 10 nM	100 to 1000 nM	10 to 100 nM	> 1000 nM
N#CCC1(n2cc(-c3nc(-c4cnn(C5COC5)c4)cc4nccn34)cn2)CN(CC(F)(F)F)C1 [Example 105, 2-(3-(4-(7-(1-(Oxetan-3-yl)-1H-pyrazol-4-yl)imidazo[1,2-c]pyrimidin-5-yl)-1H-pyrazol-1-yl)-1-(2,2,2-trifluoroethyl)azetidin-3-yl)acetonitrile]	< 10 nM	100 to 1000 nM	10 to 100 nM	> 1000 nM
